Non-standard residues stand in square brackets, D forms with d. No end group written: not given here.
B1: PPA1-DOX, conjugate of PPA1 with doxorubicin through an acid-sensitive hydrazone linker (peptide)
peptide: [dN][dY][dS][dK][dP][dT][dD][dR][dQ][dY][dH][dF]K
modifications: not fully specified (residue 13); also: triazole from click, hydrazone to doxorubicin
notes: D-peptide, printed as nyskptdrqyhf-Lys(N3); the last lysine carries the azide used for the conjugation to DOX; also called compound 5; PPA-DOX; source: synthetic: azide end-functionalized PPA1 peptide joined to hydrazine-DOX by click chemistry, purified by HPLC
B2: PPA1, proteolysis resistant PD-L1-targeted peptide (peptide)
peptide: NYSKPTDRQYHFK
modifications: all residues in D-form
notes: D-peptide, printed in lower case (nyskptdrqyhfk); also called free PPA1; PD-L1 targeting polypeptide; source: synthetic peptide, bought: Chinapeptides Co., Ltd

How the values were obtained:
heart, liver and kidney = test: H&E histology of major organs of tumor-bearing mice; assay type: in vivo, Balb/c mice; settings: CT26-bearing mice, i.p. twice a week for two weeks, n = 7
[1] = Cleavage assay of PPA1-DOX in acidic sodium phosphate buffer; assay type: physicochemical; settings: sodium phosphate buffer pH 5.0, 37°C, sampled 0.5-24 h, under nitrogen, 1 mg/mol (so in the source) in 2 mL; HPLC (HILIC), UV 254 nm
Experimental: (§1) To verify the acid sensitivity of hydrazone bond linking the PPA1 to DOX, a series of PPA1-DOX and DOX solutions with different concentrations were configured in the sodium phosphate buffer (pH= 9.0), respectively. A 5 μL aliquot of each sample was injected onto an HPLC system with ultraviolet detector wavelength to determine 254 nm absorbance values, using hydrophilic interaction chromatography (HILIC) column separation (Waters, XBridge BEH HILIC XP Column, 2.1 mm, 50 mm, 2.5 µm). Through simulating the linearity fitting from disposed concentrations and detected absorbance values, standard curves of PPA1-DOX and DOX were obtained, respectively.
(§2) Preparing two partials of PPA1-DOX (1 mg/mol) were dissolved into the 2 mL sodium phosphate buffer (pH = 5.0) and 2 mL mouse serum (pH = 7.4), respectively, and the vials were capped and kept 37°C under nitrogen with continuously slight oscillaation. Samples (20 μL) were spiked and analyzed by HPLC under the 254 nm absorbance value after incubating 0.5 h, 1 h, 2 h, 4 h, 12 h and 24 h. For evaluation of hydrazone bond cleavage data was considered the disappearance of the major peak related to the standard curves of PPA1-DOX and DOX.

[2] = Cleavage assay of PPA1-DOX in mouse serum; assay type: in vitro ADME; settings: mouse serum pH 7.4, 37°C, 24 h, under nitrogen, 1 mg/mol (so in the source) in 2 mL; HPLC (HILIC), UV 254 nm
Experimental: as §1, §2

CT26 tumor = test: Antitumor activity in CT26-bearing mice; assay type: in vivo, Balb/c mice; settings: i.p. twice a week for two weeks
[3] = Body weight of CT26 tumor-bearing mice; settings: i.p. twice a week for two weeks, DOX 5 mg/kg, 5-Fu 10 mg/kg, PPA1 15 mg/kg, PPA1-DOX 20 mg/kg, after day 7, n = 7
Source text: Six-week-old female Balb/c mice were inoculated subcutaneously with 5 × 10^6 CT26 cells in the left armpit. The mice were randomly divided into groups with 7 mice in each group after the tumor reached about 100 mm^3. The mice were housed in animal house of Shenzhen University. For the survival experiment, the mice were killed when the tumor reached about 1500 mm^3. The tumor size and body weight were monitored every day after the injection of the drugs. At the end of the experiment, the tumors and major organs (heart, liver, spleen, lung, and kidney) were collected for immunohistochemistry and/or histological tests. For the PPA1-DOX distribution experiment, the tumors and major organs were subsequently analyzed with an in vivo imaging system (IVIS Spectrum, PerkinElmer).
DOX at 5 mg/kg, 5-Fu at 10 mg/kg, PPA1 and RAN at 15mg/kg, PPA1-DOX and RAN-DOX at 20 mg/kg were injected intraperitoneally to mice twice a week for two weeks. […] For the PPA1-DOX distribution experiment, RhB-PPA1-DOX and RhB-RAN-DOX at 20mg/kg were injected into the tail vein of the mice.

[4] = test system: intratumoral CD4+ and CD8+ T cells; test: CD4/CD8 immunohistochemistry of tumor tissues; assay type: in vivo, Balb/c mice; settings: CT26-bearing mice, compared with RNA-DOX-, DOX- or 5-FU-treated mice
Experimental: The tumor tissues were fixed in 4% paraformaldehyde, gradually dehydrated, embedded in paraffin, cut into 4um sections, and subjected for hematoxylin/eosin staining. For immuno-histochemical staining of CD4/CD8 positive cells, tissue sections processed through deparaffinage, rehydration and antigen plerosised, and endogenous peroxidase activity blockade, were incubated with mouse anti-human CD4(1:300, Proteintech, USA), mouse anti-human CD8(1:200, Proteintech, USA) at 4°C overnight, respectively. The secrions were then washed and incubated with a HRP-labeled secondary antibody at RT for 40 min. After color development through incubation with diaminobenzidine, the sections were counterstained with hematoxylin. The stained sections were observed and imaged under a light microscope.

[5] = target: Programmed death-ligand 1 (PD-L1), Tag1-PD-L1 (UniProt Q9NZQ7 19-238); test: AlphaScreen or HTRF; Cisbio HTRF PD1/PD-L1 binding assay kit; Tag1-PD-L1 and Tag2-PD1 detected with anti-Tag1-Europium (donor) and anti-Tag2-XL665 (acceptor); peptide or conjugate varied as blocker; IC50 from a sigmoidal (Hill) fit; n = 3; settings: both partners purified
Chain of Programmed death-ligand 1 (PD-L1), Tag1-PD-L1 (Q9NZQ7 19-238): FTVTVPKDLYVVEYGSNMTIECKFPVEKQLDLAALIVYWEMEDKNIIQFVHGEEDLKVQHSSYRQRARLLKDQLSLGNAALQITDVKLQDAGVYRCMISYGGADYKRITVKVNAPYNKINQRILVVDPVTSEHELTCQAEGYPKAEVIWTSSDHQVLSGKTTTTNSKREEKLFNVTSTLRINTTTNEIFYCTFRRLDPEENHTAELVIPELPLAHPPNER

| Molecule | toxicity to major organs (H&E stained sections) (heart, liver and kidney) | IC50 [5] [nM] | further results |
| --- | --- | --- | --- |
| C[C@H](O)[C@@H](NC(=O)[C@H]1CCCN1C(=O)[C@@H](CCCCN)NC(=O)[C@@H](CO)NC(=O)[C@@H](Cc1ccc(O)cc1)NC(=O)[C@H](N)CC(N)=O)C(=O)N[C@H](CC(=O)O)C(=O)N[C@H](CCCNC(=N)N)C(=O)N[C@H](CCC(N)=O)C(=O)N[C@H](Cc1ccc(O)cc1)C(=O)N[C@H](Cc1c[nH]cn1)C(=O)N[C@H](Cc1ccccc1)C(=O)N[C@H](CCCCN)C(=O)O [PPA1] | rather low toxicity | – | – |
| COc1cccc2c1C(=O)c1c(O)c3c(c(O)c1C2=O)C[C@@](O)(C(CO)=NNC(=O)CCCc1cn(CC(=O)NCCCC[C@@H](NC(=O)[C@@H](Cc2ccccc2)NC(=O)[C@@H](Cc2c[nH]cn2)NC(=O)[C@@H](Cc2ccc(O)cc2)NC(=O)[C@@H](CCC(N)=O)NC(=O)[C@@H](CCCNC(=N)N)NC(=O)[C@@H](CC(=O)O)NC(=O)[C@H](NC(=O)[C@H]2CCCN2C(=O)[C@@H](CCCCN)NC(=O)[C@@H](CO)NC(=O)[C@@H](Cc2ccc(O)cc2)NC(=O)[C@H](N)CC(N)=O)[C@H](C)O)C(=O)O)nn1)C[C@@H]3O[C@H]1C[C@H](N)[C@H](O)[C@H](C)O1 [PPA1-DOX] | rather low toxicity | – | hydrazone cleavage in acidic environment [1]: rapidly cleaved into PPA1 and DOX; stability of conjugate in mouse serum (HPLC peaks) [2]: little change on peaks; survival time (CT26 tumor; PPA1-DOX 20 mg/kg, superior to free PPA1 and RAN-DOX, mice killed at tumor about 1500 mm^3, n = 7): longer survival time; tumor growth (CT26 tumor; PPA1-DOX and RAN-DOX 20 mg/kg, n = 7): effective suppression of tumor growth; body weight change [3]: no remarkable body weight loss; infiltration of CD4+ and CD8+ T cells in tumors [4]: obviously increased infiltration |
| COc1cccc2c1C(=O)c1c(O)c3c(c(O)c1C2=O)C[C@@](O)(C(=O)CO)C[C@@H]3O[C@H]1C[C@H](N)[C@H](O)[C@H](C)O1 [DOX, doxorubicin] | severe damages | – | – |
| O=c1[nH]cc(F)c(=O)[nH]1 [Compound 5-Fu] | severe damages | – | – |
| B1 | – | 281 | – |
| B2 | – | 174 | – |

— PMC8631515 (Frontiers in Oncology, 2021)
